What all share (assay type): cell-based
The test system of experiment [1] is T-Rex 293 cell line SC3 cells having increased expression of androgen receptor protein. Briefly: Cellular growth inhibition, T-Rex 293 SC3 cells with doxycycline (increased androgen receptor expression). The following applies: with 10 ng/mL doxycycline (increased androgen receptor), 72 hours, CellTiter-Glo 2.0. Put shortly: (§1)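 Doxycycline (10 ng/mL) was either included or omitted to toggle wild-type androgen receptor expression in SC3 cells, a T-Rex 293 clone, grown in stripped-serum, phenol red-free medium. After 72 hours with compound, viable cells were quantified by CellTiter-Glo 2.0.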
For orientation: In ATP-based viability assays light output follows the ATP content of the culture.

In the next experiment the test system is VCaP cells. In words: Cellular growth inhibition assay for VCaP cells. The note with it: Homo sapiens, 72 hours, CellTiter-Glo 2.0.
The subject of experiment [2] is T-Rex 293 cell line SC3 cells lacking increased expression of androgen receptor protein. In words: Cellular growth inhibition, T-Rex 293 SC3 cells without doxycycline. The following applies: not exposed to doxycycline, 72 hours, CellTiter-Glo 2.0. In a few lines: as §1
In a further experiment the test system is T47D cells. In words: Cellular growth inhibition assay for T47D cells. The following applies: Homo sapiens, 72 hours, CellTiter-Glo 2.0. Put shortly:
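Growth inhibition as GI50, fitted with four parameters to CellTiter-Glo luminescence after 72 h of compound exposure (0.5% DMSO). Cells were T47D, grown in insulin-supplemented (0.2 units/mL) DMEM with 10% FBS and treated one day post-seeding.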

The GI50 is the concentration giving 50% growth inhibition. A lower GI50 goes with greater sensitivity of the cells.

For the compound `CCc1cnn2c(NCc3ccc(OCCOCC4CCN(CC5CCN(c6ncc(C(=O)N[C@H]7C(C)(C)[C@H](Oc8ccc(C#N)c(Cl)c8)C7(C)C)cn6)CC5)CC4)nc3)cc(N3CCCC[C@H]3CCO)nc12` [Compound I-45], the GI50 was below 100 nM in experiment [1], below 100 nM in the experiment with VCaP cells and 100 to 1000 nM in experiment [2].
Turning to `CC1(C)[C@H](NC(=O)c2cnc(N3CCC(OCCNS(=O)(=O)c4ccc(Nc5ncc(Br)c(Nc6cccc(F)c6C(N)=O)n5)cc4)CC3)nc2)C(C)(C)[C@H]1Oc1ccc(C#N)c(Cl)c1` [Compound I-13, 2-(4-(2-((4-((5-bromo-4-((2-carbamoyl-3-fluorophenyl)amino)pyrimidin-2-yl)amino)phenyl)sulfonamido)ethoxy)piperidin-1-yl)-N-((1 r,3r)-3-(3-chloro-4-cyanophenoxy)-2,2,4,4-tetramethylcyclobutyl)pyrimidine-5-carboxamide], the GI50 in experiment [1] is above 3500 nM; in experiment [2], above 3500 nM; in the experiment on T47D cells, below 500 nM.
With `CCc1cnn2c(NCc3ccc(OCCOCCOCCOC4CCN(c5ccc(C(=O)N[C@H]6C(C)(C)[C@H](Oc7ccc(C#N)c(Cl)c7)C6(C)C)nn5)CC4)nc3)cc(N3CCCC[C@H]3CCO)nc12` [Compound I-44, N-((1r,3r)-3-(3-chloro-4-cyanophenoxy)-2,2,4,4-tetramethylcyclobutyl)-6-(4-(2-(2-(2-((5-(((3-ethyl-5-((S)-2-(2-hydroxyethyl)piperidin-1-yl)pyrazolo[1,5-a]pyrimidin-7-yl)amino)methyl)pyridin-2-yl)oxy)ethoxy)ethoxy)ethoxy)piperidin-1-yl)pyridazine-3-carboxamide], the GI50 in experiment [1] was 100 to 1000 nM; in experiment [2] it was 100 to 1000 nM; in the experiment on T47D cells, below 500 nM.
As for `CCc1cnn2c(NCc3ccc(=O)n(CCOCCOCCOCCOCCOCCOCCN(C)c4ncc(C(=O)N[C@H]5C(C)(C)[C@H](Oc6ccc(C#N)c(Cl)c6)C5(C)C)cn4)c3)cc(N3CCCC[C@H]3CCO)nc12` [Compound I-4, N-((1r,3r)-3-(3-chloro-4-cyanophenoxy)-2,2,4,4-tetramethylcyclobutyl)-2-((20-(5-(((3-ethyl-5-((S)-2-(2-hydroxyethyl)piperidin-1-yl)pyrazolo[1,5-a]pyrimidin-7-yl)amino)methyl)-2-oxopyridin-1(2H)-yl)-3,6,9,12,15,18-hexaoxaicosyl)(methyl)amino)pyrimidine-5-carboxamide], the GI50 in experiment [1] and in experiment [2] was 100 to 1000 nM throughout.
For `CCc1cnn2c(NCc3ccc(OCCOCCOCCOCCOCCOCCOCCN(C)c4ncc(C(=O)N[C@H]5C(C)(C)[C@H](Oc6ccc(C#N)c(Cl)c6)C5(C)C)cn4)nc3)cc(N3CCCC[C@H]3CCO)nc12` [Compound I-5], the GI50 in experiment [1] was 100 to 1000 nM; in experiment [2], 1000 to 3500 nM.
Turning to `CCc1cnn2c(NCc3ccc(OCCCCOCCOC4CCN(c5ncc(C(=O)N[C@H]6C(C)(C)[C@H](Oc7ccc(C#N)c(Cl)c7)C6(C)C)cn5)CC4)nc3)cc(N3CCCC[C@H]3CCO)nc12` [Compound I-34], the GI50 was below 100 nM in experiment [1], below 100 nM in the experiment with VCaP cells and above 3500 nM in experiment [2].
For `CCc1cnn2c(NCc3ccc(OCCOCCOCCOCCOCCN(C)c4ncc(C(=O)N[C@H]5C(C)(C)[C@H](Oc6ccc(C#N)c(Cl)c6)C5(C)C)cn4)nc3)cc(N3CCCC[C@H]3CCO)nc12` [Compound I-3], the GI50 in experiment [1] is below 100 nM; in the experiment with VCaP cells, below 100 nM; in experiment [2], 100 to 1000 nM.
As for `CCc1cnn2c(NCc3ccc(OCCN(C)c4ncc(C(=O)N[C@H]5C(C)(C)[C@H](Oc6ccc(C#N)c(Cl)c6)C5(C)C)cn4)nc3)cc(N3CCCC[C@H]3CCO)nc12` [Compound I-1], the GI50 in experiment [1] was in the range of 100 to 1000 nM; in experiment [2], 100 to 1000 nM; in the experiment on T47D cells it was 500 to 1500 nM.
With `CCc1cnn2c(NCc3ccc(OCCOCCOCCOCCOCCOC4CCN(c5ncc(C(=O)N[C@H]6C(C)(C)[C@H](Oc7ccc(C#N)c(Cl)c7)C6(C)C)cn5)CC4)nc3)cc(N3CCCC[C@H]3CCO)nc12` [Compound I-9], the GI50 is below 100 nM in experiment [1], below 100 nM in the experiment on VCaP cells and 100 to 1000 nM in experiment [2].

The record behind these values is US20260159520A1, “HETEROBIFUNCTIONAL COMPOUNDS AND METHODS OF TREATING DISEASE” (Halda Therapeutics OpCo, Inc., priority 2022, published 2026).
